Source: ChEMBL document CHEMBL4130373, “Design, synthesis and biological evaluation of 4-anilinoquinoline derivatives as novel potent tubulin depolymerization agents” (Eur J Med Chem, 2017)
Structures can show the parent of a compound that is named as a salt. Calls of active or inactive are those of the source. No cut-off for these calls is given here.

Key:
HCT-116 [1] = test: Antitumor activity against human HCT116 cells xenografted in Balb/c athymic nude mouse assessed as tumor growth inhibition at 100 mg/kg, iv administered once in every 7 days measured on day 18 post treatment relative to control; type: functional; settings: HCT-116, iv, read-out: TGI
Mus musculus [2] = test: Toxicity in Balb/c athymic nude mouse xenografted with human HCT116 cells assessed as body weight loss at 100 mg/kg, iv administered once in every 7 days relative to control; type: organism-based; settings: in vivo, 168 h
MDA-MB-231 = test: Antiproliferative activity against human MDA-MB-231 cells after 48 hrs by MTT assay; type: functional, cell-based; settings: MDA-MB-231, 48 h
[3] = Solubility of the compound in physiological saline at 1 mg; type: physicochemical; settings: buffer
HCT-8 = test: Antiproliferative activity against human HCT8 cells after 48 hrs by MTT assay; type: functional, cell-based; settings: HCT-8, 48 h
HCT-116 [4] = test: Antiproliferative activity against human HCT116 cells after 48 hrs by MTT assay; type: functional, cell-based; settings: HCT-116, 48 h
A549 = test: Antiproliferative activity against human A549 cells after 48 hrs by MTT assay; type: functional, cell-based; settings: A549, 48 h
A2780S [5] = test: Antiproliferative activity against human A2780S cells after 48 hrs by MTT assay; type: functional, cell-based
MCF7 = test: Antiproliferative activity against human MCF7 cells after 48 hrs by MTT assay; type: functional, cell-based; settings: MCF7, 48 h
L02 = test: Antiproliferative activity against human LO2 cells after 48 hrs by MTT assay; type: cell-based; settings: L02, 48 h
HEK293 = test: Antiproliferative activity against HEK293 cells after 48 hrs by MTT assay; type: cell-based; settings: Homo sapiens, HEK293, 48 h; read-out: IC50
[6] = Antiproliferative activity against human HCT8/T cells after 48 hrs by MTT assay; type: functional, cell-based; settings: HCT-8, 48 h
[7] = Antiproliferative activity against human HCT8/V cells after 48 hrs by MTT assay; type: functional, cell-based; settings: HCT-8, 48 h
NCI/ADR-RES = test: Antiproliferative activity against human MCF7/ADR cells after 48 hrs by MTT assay; type: functional, cell-based
A2780/Taxol = test: Antiproliferative activity against human A2780T cells after 48 hrs by MTT assay; type: functional, cell-based
[8] = Resistance index, ratio of IC50 for human HCT8/T cells to IC50 for human HCT8 cells; type: functional
[9] = Resistance index, ratio of IC50 for human HCT8/V cells to IC50 for human HCT8 cells; type: functional
[10] = Resistance index, ratio of IC50 for human MCF7/ADR cells to IC50 for human MCF7 cells; type: functional
[11] = Resistance index, ratio of IC50 for human A2780T cells to IC50 for human A2780S cells; type: functional
A2780S [12] = test: Cell cycle arrest in human A2780S cells assessed as accumulation at G0/G1 phase at 3 nM after 24 hrs by propidium iodide staining based flow cytometry (reference value: 44.3%); type: functional
A2780S [13] = test: Cell cycle arrest in human A2780S cells assessed as accumulation at S phase at 3 nM after 24 hrs by propidium iodide staining based flow cytometry (reference value: 40.36%); type: functional
A2780S [14] = test: Cell cycle arrest in human A2780S cells assessed as accumulation at G2/M phase at 3 nM after 24 hrs by propidium iodide staining based flow cytometry (reference value: 15.34%); type: functional
A2780S [15] = test: Cell cycle arrest in human A2780S cells assessed as accumulation at G0/G1 phase at 10 nM after 24 hrs by propidium iodide staining based flow cytometry (reference value: 44.3%); type: functional
A2780S [16] = test: Cell cycle arrest in human A2780S cells assessed as accumulation at S phase at 10 nM after 24 hrs by propidium iodide staining based flow cytometry (reference value: 40.36%); type: functional
A2780S [17] = test: Cell cycle arrest in human A2780S cells assessed as accumulation at G2/M phase at 10 nM after 24 hrs by propidium iodide staining based flow cytometry (reference value: 15.34%); type: functional
A2780S [18] = test: Cell cycle arrest in human A2780S cells assessed as accumulation at G0/G1 phase at 30 nM after 24 hrs by propidium iodide staining based flow cytometry (reference value: 44.3%); type: functional
A2780S [19] = test: Cell cycle arrest in human A2780S cells assessed as accumulation at S phase at 30 nM after 24 hrs by propidium iodide staining based flow cytometry (reference value: 40.36%); type: functional
A2780S [20] = test: Cell cycle arrest in human A2780S cells assessed as accumulation at G2/M phase at 30 nM after 24 hrs by propidium iodide staining based flow cytometry (reference value: 15.34%); type: functional
A2780S [21] = test: Cell cycle arrest in human A2780S cells assessed as accumulation at G2/M phase after 24 hrs by propidium iodide staining based flow cytometry; type: functional
A2780S [22] = test: Induction of alpha-tubulin depolymerization in human A2780S cells at 5 to 50 nM after 24 hrs by DAPI staining based immunofluorescence microscopic method; type: cell-based
Sus scrofa = species on record: Sus scrofa; test: Inhibition of porcine brain tubulin polymerization preincubated for 5 mins followed by GTP addition measured every 2 mins by spectrophotometric method
HepG2 = test: Binding affinity to beta-tubulin colchicine binding site in human HepG2 cells assessed as reduction in EBI-beta-tubulin adduct formation preincubated for 2 hrs followed by EBI addition measured after 1.5 hrs by Western blot analysis; type: cell-based
HCT-116 [23] = test: Antitumor activity against human HCT116 cells xenografted in Balb/c athymic nude mouse assessed as tumor growth inhibition at 2.5 mg/kg administered once in every 2 days measured on day 18 post treatment relative to control; type: functional; settings: read-out: TGI
Mus musculus [24] = test: Toxicity in Balb/c athymic nude mouse xenografted with human HCT116 cells assessed as body weight loss at 2.5 mg/kg administered once in every 2 days relative to control; type: organism-based; settings: in vivo, 48 h
Mus musculus [25] = test: Toxicity in Balb/c athymic nude mouse xenografted with human HCT116 cells assessed as effect on feeding behaviour at 2.5 mg/kg administered once in every 2 days; type: organism-based; settings: in vivo, 48 h
Mus musculus [26] = test: Toxicity in Balb/c athymic nude mouse xenografted with human HCT116 cells assessed as abnormal behaviour at 2.5 mg/kg administered once in every 2 days; type: organism-based; settings: in vivo, 48 h

SMILES: O=c1[nH]cc(F)c(=O)[nH]1 [FLUOROURACIL]
- inhibition in vivo at 100 mg/kg (HCT-116 [1]): 60.8%
- Activity (Mus musculus [2]): < 10%

SMILES: COc1ccc(N(C)c2cc(C)nc3ccccc23)cc1NC(=O)CN1CCSCC1
- IC50 (MDA-MB-231): > 500 nM
- solubility [3]: Soluble

SMILES: COc1ccc(N(C)c2cc(Cl)nc3ccccc23)cc1
- IC50 (MDA-MB-231): > 500 nM
- solubility [3]: Insoluble

SMILES: COc1ccc(N(C)c2cc(C)nc3ccccc23)cc1NC(=O)CCCl
- IC50 (MDA-MB-231): 96.6 nM
- solubility [3]: Soluble

SMILES: COc1ccc(N(C)c2cc(C)nc3ccccc23)cc1NC(=O)CCl
- IC50 (MDA-MB-231): 6.6 nM
- solubility [3]: Soluble

SMILES: COc1ccc(N(C)c2cc(C)nc3ccccc23)cc1NC(=O)CCCCl
- IC50 (MDA-MB-231): 3.9 nM
- solubility [3]: Soluble
- IC50 (HCT-8): 3.4 nM
- IC50 (HCT-116 [4]): 2.7 nM
- IC50 (A549): 3.2 nM
- IC50 (A2780S [5]): 2.2 nM
- IC50 (MCF7): 1.5 nM
- IC50 (L02): 75.6 nM
- IC50 (HEK293): 45.3 nM
- IC50 [6]: 3.5 nM
- IC50 [7]: 3.5 nM
- IC50 (NCI/ADR-RES): 3.3 nM
- IC50 (A2780/Taxol): 3.7 nM
- Ratio IC50 [8]: 1
- Ratio IC50 [9]: 1
- Ratio IC50 [10]: 2.3
- Ratio IC50 [11]: 1.7
- Activity (A2780S [12]): 27.95%
- Activity (A2780S [13]): 32.57%
- Activity (A2780S [14]): 39.48%
- Activity (A2780S [15]): 2.68%
- Activity (A2780S [16]): 22.69%
- Activity (A2780S [17]): 74.62%
- Activity (A2780S [18]): 2.3%
- Activity (A2780S [19]): 17.03%
- Activity (A2780S [20]): 80.67%
- Activity (A2780S [21]): Dose-dependent effect
- Activity (A2780S [22]): Active
- inhibition (Sus scrofa): Dose-dependent effect
- Activity (HepG2): Dose-dependent effect
- inhibition in vivo at 2.5 mg/kg (HCT-116 [23]): 54.3%
- Activity (Mus musculus [24]): < 10%
- Activity (Mus musculus [25]): Non-Toxic
- Activity (Mus musculus [26]): Non-Toxic

SMILES: CCCC(=O)Nc1cc(N(C)c2cc(C)nc3ccccc23)ccc1OC
- IC50 (MDA-MB-231): 58.4 nM
- solubility [3]: Insoluble

SMILES: COc1ccc(N(C)c2cc(C)nc3ccccc23)cc1NC(=O)CBr
- IC50 (MDA-MB-231): 87.2 nM
- solubility [3]: Soluble

SMILES: COc1cccc2c1C(=O)c1c(O)c3c(c(O)c1C2=O)C[C@@](O)(C(=O)CO)C[C@@H]3O[C@H]1C[C@H](N)[C@H](O)[C@H](C)O1 [DOXORUBICIN HYDROCHLORIDE]
- IC50 (NCI/ADR-RES): 54800 nM

SMILES: COc1ccc(N(C)c2cc(C)nc3ccccc23)cc1NC(C)=O
- IC50 (MDA-MB-231): 9.1 nM
- solubility [3]: Soluble

SMILES: COc1ccc(N(C)c2cc(C)nc3ccccc23)cc1NC(=O)CN1CCOCC1
- IC50 (MDA-MB-231): 256 nM
- solubility [3]: Insoluble

SMILES: COc1ccc(N(C)c2cc(C)nc3ccccc23)cc1NC(=O)CN1CCCC(C)C1 (stereo not drawn)
- IC50 (MDA-MB-231): 394 nM
- solubility [3]: Insoluble

SMILES: C=CC(=O)Nc1cc(N(C)c2cc(C)nc3ccccc23)ccc1OC
- IC50 (MDA-MB-231): 43.4 nM
- solubility [3]: Soluble

SMILES: CSc1ccc(N(C)c2cc(C)nc3ccccc23)cc1N
- IC50 (MDA-MB-231): 9.5 nM
- solubility [3]: Soluble

SMILES: COc1ccc(N(C)c2cc(C)nc3ccccc23)cc1NC(=O)CNCCNc1ccccc1
- IC50 (MDA-MB-231): 83.6 nM
- solubility [3]: Insoluble

SMILES: COc1ccc(N(C)c2ccnc3ccccc23)cc1N
- IC50 (MDA-MB-231): > 500 nM
- solubility [3]: Soluble
